Measurements from patent US20240180891A1, “SYNERGISTIC MODULATORS OF ALPHA-DICARBONYL DETOXIFICATION AND THEIR USE FOR INDUCING WEIGHT LOSS AND THE TREATMENT OF DIABETIC PATHOLOGIES” (Buck Institute for Research on Aging, priority 2020, published 2024).

Legend:
C57BL/6 mice = test system: C57BL/6 mice
Experimental: Percent weight increases indicate the percent change from starting body weights to the weights at the end of the two-week diet. Daily food consumption was measured twice weekly.
Next, we tested if MG-H1, which is detectable in human CSF and serum (Monnier et al. (2005) Ann. N. Y. Acad. Sci. 1043: 567-581), influences feeding in mice. We gave 12 week-old WT mice 100 μM or 200 μM MG-H1 via supplementation of drinking water for two weeks.

C. elegans = conditions: feeding of AGE, data not shown
Source text: MGO-derived AGEs have been found in proteins with aging and in age-related diseases (see, e.g., Li et al. (2012) J. Neurol. Sci. 317: 1-5; Cone (2005) Nat. Neurosci. 8: 571-578; Mitchell et al. (2017) Oncotarget, 8: 17453-17474; Li et al. (2012) Neurobiol. Aging 33: 1400-1410). […] To investigate the impact of specific AGEs, we provided synthesized individual AGEs and examined their biological effects. We adapted published procedures to synthesize four AGEs on a gram scale: carboxymethyl-lysine (CML), carboxyethyl-lysine (CEL), fructose-lysine (F-Ly), and methylglyoxal-derived hydroimidazolone MG-H1. CEL and MG-H1 are MGO derived AGEs while CML is glyoxal derived, and F-LY is glucose derived.

[1] = recent human trial (Bierhaus et al.); cited from earlier work
[2] = single compounds; cited from earlier work
C. elegans glod-4 mutant = C. elegans glod-4 mutant screen of natural product library for compounds mitigating MGO toxicity; type: in vivo; conditions: C. elegans and mammalian neuronal cells; Tim Tec NPL-640 library
Source text: (§1) We used C. elegans to screen for compounds that mitigate the detrimental phenotypes in the worm glod-4 mutant. […] This included alpha-lipoic acid (ALA), a drug already prescribed for diabetic neuropathy in certain countries (see, e.g., Giacco et al. (2014) Diabetes 63: 291-299).

[3] = molecular target: T1, transient receptor potential cation channel (TRPA1) (Caenorhabditis elegans, UniProt Q18297); assay: ALA mechanism: TRPA1 activation and glyoxalase expression; set-up: species or system C. elegans
T1 sequence (Q18297 1-1211): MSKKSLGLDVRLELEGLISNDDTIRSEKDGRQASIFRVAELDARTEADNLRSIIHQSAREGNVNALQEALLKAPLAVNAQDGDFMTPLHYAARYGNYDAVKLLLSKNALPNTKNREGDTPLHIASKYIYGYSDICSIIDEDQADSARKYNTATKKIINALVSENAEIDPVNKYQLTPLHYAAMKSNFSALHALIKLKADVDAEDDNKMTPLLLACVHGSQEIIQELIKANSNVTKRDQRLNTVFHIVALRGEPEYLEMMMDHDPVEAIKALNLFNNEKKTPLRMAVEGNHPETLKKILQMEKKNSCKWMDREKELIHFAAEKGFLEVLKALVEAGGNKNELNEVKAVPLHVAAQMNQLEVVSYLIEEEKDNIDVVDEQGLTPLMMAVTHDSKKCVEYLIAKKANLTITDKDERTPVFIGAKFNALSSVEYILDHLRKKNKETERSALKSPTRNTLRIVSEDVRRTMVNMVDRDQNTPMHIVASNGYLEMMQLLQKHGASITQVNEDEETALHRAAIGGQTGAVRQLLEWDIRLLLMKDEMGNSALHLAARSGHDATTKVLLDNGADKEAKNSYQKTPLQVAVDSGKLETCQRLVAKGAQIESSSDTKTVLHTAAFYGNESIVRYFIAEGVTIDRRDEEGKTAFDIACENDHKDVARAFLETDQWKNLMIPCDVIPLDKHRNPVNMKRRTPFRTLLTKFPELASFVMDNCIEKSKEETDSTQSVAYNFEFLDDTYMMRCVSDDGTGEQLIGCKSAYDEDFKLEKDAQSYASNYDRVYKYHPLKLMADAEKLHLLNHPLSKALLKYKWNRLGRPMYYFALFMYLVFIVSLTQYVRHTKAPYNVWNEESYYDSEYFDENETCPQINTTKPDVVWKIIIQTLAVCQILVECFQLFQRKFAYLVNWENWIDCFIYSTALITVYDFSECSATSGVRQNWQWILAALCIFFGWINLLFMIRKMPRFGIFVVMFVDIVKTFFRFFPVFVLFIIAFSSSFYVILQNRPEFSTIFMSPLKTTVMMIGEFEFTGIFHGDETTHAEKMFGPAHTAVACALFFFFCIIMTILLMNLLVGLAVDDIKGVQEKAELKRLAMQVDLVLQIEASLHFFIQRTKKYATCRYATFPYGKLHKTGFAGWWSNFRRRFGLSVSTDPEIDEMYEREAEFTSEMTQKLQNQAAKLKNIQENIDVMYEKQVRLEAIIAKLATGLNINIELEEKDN
Source text: FIG. 4 illustrates a proposed model for how MGO is sensed by TRPA1 to activate SKN-1/Nrf2 and mediate detoxification of MGO through downstream glyoxalases in worms and mammals. MGO is sensed by TRPA-1 leading to the activation of SKN-1/Nrf2 pathway. This in turn activates downstream glyoxalases GLO1 and DJ1 (Id.).
as §1

[4] = higher dose (200 μM) in drinking water, two weeks

SMILES | hourly food intake (C57BL/6 mice; data not shown) | water intake (C57BL/6 mice; data not shown) | energy expenditure (C57BL/6 mice; higher dose) | oxygen consumption (C57BL/6 mice; higher dose) | body weights (C57BL/6 mice; [4]) | food intake (C57BL/6 mice; [4]) | food intake (C. elegans) | triglyceride content (C. elegans) | weight [1] | protection against obesity [2] | amelioration of deleterious effects of MGO toxicity (C. elegans glod-4 mutant) | TRPA1 activation [3] | expression of glyoxalases (DJ1 and GLO1) [3]
CC1NC(NCCC[C@H](N)C(=O)O)=NC1=O (some centres unmarked) [MG-H1, hydroimidazolone Nδ-(5-hydro-5-methyl-4-imidazolon-2-yl) ornithine] | increase in hourly food intake | relatively similar water intake | reactive increase | reactive increase | significant increase | significant increase | enhances food intake | increases triglyceride content | – | – | – | – | –
O=C(O)CCCCC1CCSS1 (stereo not drawn) [alpha-lipoic acid, 1,2-dithiolane-3-pentanoic acid] | – | – | – | – | – | – | – | – | effectiveness in reducing weight | protect against obesity | ameliorate the deleterious effects of MGO toxicity | activates | enhancing the expression
NC(=O)c1cccnc1 [nicotinamide] | – | – | – | – | – | – | – | – | – | protect against obesity | – | – | –
